Holding throughout (test): Demethylase AlphaScreen Assay
What all share (settings): pH 7.5
In general terms: Bead proximity is the source of the signal in Alpha formats.

Assay [1] deals with T1, Lysine-specific demethylase 5C [1-765] (Homo sapiens, UniProt P41229).
T1 construct: 1-765
T1 sequence (P41229 whole entry): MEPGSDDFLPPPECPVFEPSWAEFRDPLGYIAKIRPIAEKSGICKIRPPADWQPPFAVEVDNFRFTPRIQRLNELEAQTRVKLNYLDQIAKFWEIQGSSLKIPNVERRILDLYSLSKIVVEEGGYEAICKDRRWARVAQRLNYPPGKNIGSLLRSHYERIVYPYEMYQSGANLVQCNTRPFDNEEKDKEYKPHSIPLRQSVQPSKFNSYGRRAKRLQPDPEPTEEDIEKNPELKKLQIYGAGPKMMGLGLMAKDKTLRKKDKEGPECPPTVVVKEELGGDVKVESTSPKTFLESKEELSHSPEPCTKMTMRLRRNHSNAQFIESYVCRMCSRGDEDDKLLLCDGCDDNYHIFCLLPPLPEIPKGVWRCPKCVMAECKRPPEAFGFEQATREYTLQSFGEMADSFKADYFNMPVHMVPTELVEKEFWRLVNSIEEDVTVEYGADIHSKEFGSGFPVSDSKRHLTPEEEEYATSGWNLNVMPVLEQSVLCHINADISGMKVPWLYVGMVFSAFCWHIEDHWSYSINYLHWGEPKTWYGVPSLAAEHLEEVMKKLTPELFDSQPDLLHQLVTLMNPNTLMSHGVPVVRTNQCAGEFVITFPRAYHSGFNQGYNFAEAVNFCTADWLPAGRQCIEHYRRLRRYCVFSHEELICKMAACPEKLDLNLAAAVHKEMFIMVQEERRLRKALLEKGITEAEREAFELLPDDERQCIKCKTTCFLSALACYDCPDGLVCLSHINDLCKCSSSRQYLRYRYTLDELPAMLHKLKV
How it is done: (§1) The demethylase AlphaScreen assay was performed in 384-well plate format using white proxiplates (PerkinElmer), and transfer of compound (100 nl) was performed using an ECHO 550 acoustic dispenser (Labcyte). […] All subsequent steps were carried out in assay buffer (50 mM HEPES, pH 7.5, 0.1% (wt/vol) BSA and 0.01% (vol/vol) Tween-20). In brief, 5 μl of assay buffer containing demethylase enzyme at 2× final assay concentration (see Supplementary Table 3c for assay specifics) was preincubated for 15 min with dilutions of compound.

Assay [2] addresses Lysine-specific demethylase 5B (Homo sapiens, UniProt Q9UGL1). How it is done:
as §1

Assay [3] concerns the target T2, Lysine-specific demethylase 4C (Homo sapiens, UniProt Q9H3R0).
T2 sequence (Q9H3R0 whole entry): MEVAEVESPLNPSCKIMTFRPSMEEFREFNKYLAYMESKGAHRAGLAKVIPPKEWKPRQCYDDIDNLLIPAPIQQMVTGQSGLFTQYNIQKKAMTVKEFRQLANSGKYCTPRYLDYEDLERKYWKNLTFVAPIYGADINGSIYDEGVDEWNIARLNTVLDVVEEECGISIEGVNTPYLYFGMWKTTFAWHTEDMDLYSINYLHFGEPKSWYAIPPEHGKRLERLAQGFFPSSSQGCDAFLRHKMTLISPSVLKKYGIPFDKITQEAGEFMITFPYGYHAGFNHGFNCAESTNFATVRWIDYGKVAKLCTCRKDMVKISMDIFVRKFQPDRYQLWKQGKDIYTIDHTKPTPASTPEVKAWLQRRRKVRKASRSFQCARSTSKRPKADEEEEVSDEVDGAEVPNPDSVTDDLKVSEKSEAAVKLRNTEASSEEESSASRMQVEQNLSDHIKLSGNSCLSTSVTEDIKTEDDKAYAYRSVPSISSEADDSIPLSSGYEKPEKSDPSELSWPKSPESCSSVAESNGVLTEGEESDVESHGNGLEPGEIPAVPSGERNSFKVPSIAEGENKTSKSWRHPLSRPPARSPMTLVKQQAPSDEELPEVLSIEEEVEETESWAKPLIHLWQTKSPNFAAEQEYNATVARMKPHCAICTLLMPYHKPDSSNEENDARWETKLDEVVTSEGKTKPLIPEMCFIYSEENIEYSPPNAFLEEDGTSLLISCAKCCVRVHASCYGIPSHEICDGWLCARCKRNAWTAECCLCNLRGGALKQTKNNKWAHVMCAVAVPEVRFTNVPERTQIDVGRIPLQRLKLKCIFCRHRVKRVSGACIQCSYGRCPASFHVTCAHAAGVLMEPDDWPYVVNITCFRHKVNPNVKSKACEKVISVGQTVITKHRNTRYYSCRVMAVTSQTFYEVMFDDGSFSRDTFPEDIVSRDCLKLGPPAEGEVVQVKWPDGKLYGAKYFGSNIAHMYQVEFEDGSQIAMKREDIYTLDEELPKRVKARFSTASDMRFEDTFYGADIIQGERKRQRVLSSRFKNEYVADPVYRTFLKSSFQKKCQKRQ
The procedure:
as §1

In assay [4] the target is T3, Lysine-specific demethylase 5A [1-801] (Homo sapiens, UniProt P29375).
T3 construct: 1-801
T3 sequence (P29375 whole entry): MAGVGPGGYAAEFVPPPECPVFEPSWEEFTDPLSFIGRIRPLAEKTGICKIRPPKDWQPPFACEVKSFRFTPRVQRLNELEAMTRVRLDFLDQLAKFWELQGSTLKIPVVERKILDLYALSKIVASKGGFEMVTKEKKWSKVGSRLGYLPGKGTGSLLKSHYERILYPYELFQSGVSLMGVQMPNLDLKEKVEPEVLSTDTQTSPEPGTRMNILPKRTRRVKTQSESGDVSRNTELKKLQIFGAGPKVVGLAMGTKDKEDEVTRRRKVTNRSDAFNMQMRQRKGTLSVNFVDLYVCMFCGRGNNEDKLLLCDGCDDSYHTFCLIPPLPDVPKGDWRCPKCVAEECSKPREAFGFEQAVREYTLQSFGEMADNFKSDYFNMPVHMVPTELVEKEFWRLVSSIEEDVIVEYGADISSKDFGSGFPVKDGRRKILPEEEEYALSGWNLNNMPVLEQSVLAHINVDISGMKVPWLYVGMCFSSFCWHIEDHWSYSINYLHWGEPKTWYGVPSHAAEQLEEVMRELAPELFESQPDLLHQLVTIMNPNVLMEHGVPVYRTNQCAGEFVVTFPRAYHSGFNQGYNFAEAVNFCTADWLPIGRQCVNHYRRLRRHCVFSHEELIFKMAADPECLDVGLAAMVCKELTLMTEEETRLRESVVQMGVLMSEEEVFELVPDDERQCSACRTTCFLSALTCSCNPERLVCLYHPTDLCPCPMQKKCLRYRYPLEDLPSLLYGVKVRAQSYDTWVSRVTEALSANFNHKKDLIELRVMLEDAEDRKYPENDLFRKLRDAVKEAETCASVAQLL
The procedure:
as §1

Assay [5] concerns the target T4, Lysine-specific demethylase 5D [1-775] (Homo sapiens, UniProt Q9BY66).
T4 construct: 1-775
How it is done:
as §1

For assay [6], the target named is T5, Lysine-specific demethylase 3A (Homo sapiens, UniProt Q9Y4C1).
T5 sequence (Q9Y4C1 whole entry): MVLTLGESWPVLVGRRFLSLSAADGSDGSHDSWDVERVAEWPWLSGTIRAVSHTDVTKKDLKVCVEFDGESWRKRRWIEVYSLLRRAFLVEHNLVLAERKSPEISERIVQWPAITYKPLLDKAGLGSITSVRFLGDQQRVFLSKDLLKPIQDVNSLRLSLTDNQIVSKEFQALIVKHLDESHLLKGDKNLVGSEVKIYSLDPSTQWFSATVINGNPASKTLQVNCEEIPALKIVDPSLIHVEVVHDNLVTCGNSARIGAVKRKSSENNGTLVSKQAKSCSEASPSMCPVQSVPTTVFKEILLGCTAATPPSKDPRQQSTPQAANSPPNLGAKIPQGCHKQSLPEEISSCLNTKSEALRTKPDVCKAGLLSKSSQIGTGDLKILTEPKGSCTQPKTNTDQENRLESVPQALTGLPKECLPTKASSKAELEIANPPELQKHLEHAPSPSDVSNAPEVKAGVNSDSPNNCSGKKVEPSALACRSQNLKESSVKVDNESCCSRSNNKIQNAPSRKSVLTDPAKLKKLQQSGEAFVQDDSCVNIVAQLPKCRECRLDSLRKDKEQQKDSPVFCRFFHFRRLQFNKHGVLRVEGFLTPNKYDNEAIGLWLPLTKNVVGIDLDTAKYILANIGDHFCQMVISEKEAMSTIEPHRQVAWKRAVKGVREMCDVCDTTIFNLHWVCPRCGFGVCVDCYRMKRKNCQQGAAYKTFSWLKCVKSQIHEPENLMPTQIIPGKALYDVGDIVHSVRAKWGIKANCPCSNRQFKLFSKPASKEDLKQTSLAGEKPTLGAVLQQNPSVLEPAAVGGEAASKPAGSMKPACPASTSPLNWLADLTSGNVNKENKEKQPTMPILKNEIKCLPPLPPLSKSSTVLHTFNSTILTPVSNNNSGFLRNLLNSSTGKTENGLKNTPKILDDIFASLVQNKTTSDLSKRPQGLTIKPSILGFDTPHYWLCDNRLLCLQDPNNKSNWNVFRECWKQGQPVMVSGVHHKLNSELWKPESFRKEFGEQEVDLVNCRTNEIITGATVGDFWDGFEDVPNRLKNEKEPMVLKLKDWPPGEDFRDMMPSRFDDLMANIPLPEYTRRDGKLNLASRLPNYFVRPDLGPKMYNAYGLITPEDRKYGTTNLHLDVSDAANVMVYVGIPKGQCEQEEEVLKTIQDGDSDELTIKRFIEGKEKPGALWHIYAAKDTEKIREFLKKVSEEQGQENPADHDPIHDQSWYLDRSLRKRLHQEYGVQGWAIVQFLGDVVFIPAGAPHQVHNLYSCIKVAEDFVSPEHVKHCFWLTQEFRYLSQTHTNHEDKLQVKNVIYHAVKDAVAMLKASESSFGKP
The procedure:
as §1

Assay [7] addresses T6, Lysine-specific demethylase 2A (Homo sapiens, UniProt Q9Y2K7).
T6 sequence (Q9Y2K7 whole entry): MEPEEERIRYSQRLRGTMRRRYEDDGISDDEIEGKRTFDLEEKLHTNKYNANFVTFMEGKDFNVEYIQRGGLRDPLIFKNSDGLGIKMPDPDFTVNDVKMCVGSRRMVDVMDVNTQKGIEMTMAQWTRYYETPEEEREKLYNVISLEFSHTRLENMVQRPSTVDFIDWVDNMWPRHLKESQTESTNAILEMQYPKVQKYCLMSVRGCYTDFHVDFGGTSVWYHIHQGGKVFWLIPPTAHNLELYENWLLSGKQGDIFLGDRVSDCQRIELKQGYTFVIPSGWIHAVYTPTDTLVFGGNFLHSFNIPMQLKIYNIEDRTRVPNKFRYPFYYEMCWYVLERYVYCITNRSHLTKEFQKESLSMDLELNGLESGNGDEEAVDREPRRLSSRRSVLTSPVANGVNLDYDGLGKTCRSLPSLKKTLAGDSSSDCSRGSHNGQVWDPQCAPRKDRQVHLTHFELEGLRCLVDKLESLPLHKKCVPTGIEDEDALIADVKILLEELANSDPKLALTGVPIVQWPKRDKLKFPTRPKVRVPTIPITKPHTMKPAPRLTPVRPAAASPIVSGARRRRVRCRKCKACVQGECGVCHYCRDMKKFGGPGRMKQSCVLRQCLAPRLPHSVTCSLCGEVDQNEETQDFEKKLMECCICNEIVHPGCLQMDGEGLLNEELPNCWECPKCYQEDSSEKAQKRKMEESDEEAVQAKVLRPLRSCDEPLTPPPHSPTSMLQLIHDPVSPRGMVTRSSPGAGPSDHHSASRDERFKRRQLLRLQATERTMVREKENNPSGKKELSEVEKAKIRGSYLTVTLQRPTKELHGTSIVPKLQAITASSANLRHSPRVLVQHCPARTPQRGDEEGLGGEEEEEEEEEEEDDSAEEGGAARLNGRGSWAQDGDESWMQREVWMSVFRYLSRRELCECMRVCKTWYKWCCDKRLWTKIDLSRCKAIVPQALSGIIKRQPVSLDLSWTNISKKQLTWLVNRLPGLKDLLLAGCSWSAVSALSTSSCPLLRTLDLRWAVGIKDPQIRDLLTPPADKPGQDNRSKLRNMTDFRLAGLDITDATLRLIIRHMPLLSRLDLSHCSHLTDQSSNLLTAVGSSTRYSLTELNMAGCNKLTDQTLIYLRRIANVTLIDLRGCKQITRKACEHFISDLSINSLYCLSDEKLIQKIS
How it is done: as §1

For assay [8], the target named is Lysine-specific demethylase 6B (Homo sapiens, UniProt O15054). How it is done: as §1
Chain of Lysine-specific demethylase 6B (O15054 whole entry): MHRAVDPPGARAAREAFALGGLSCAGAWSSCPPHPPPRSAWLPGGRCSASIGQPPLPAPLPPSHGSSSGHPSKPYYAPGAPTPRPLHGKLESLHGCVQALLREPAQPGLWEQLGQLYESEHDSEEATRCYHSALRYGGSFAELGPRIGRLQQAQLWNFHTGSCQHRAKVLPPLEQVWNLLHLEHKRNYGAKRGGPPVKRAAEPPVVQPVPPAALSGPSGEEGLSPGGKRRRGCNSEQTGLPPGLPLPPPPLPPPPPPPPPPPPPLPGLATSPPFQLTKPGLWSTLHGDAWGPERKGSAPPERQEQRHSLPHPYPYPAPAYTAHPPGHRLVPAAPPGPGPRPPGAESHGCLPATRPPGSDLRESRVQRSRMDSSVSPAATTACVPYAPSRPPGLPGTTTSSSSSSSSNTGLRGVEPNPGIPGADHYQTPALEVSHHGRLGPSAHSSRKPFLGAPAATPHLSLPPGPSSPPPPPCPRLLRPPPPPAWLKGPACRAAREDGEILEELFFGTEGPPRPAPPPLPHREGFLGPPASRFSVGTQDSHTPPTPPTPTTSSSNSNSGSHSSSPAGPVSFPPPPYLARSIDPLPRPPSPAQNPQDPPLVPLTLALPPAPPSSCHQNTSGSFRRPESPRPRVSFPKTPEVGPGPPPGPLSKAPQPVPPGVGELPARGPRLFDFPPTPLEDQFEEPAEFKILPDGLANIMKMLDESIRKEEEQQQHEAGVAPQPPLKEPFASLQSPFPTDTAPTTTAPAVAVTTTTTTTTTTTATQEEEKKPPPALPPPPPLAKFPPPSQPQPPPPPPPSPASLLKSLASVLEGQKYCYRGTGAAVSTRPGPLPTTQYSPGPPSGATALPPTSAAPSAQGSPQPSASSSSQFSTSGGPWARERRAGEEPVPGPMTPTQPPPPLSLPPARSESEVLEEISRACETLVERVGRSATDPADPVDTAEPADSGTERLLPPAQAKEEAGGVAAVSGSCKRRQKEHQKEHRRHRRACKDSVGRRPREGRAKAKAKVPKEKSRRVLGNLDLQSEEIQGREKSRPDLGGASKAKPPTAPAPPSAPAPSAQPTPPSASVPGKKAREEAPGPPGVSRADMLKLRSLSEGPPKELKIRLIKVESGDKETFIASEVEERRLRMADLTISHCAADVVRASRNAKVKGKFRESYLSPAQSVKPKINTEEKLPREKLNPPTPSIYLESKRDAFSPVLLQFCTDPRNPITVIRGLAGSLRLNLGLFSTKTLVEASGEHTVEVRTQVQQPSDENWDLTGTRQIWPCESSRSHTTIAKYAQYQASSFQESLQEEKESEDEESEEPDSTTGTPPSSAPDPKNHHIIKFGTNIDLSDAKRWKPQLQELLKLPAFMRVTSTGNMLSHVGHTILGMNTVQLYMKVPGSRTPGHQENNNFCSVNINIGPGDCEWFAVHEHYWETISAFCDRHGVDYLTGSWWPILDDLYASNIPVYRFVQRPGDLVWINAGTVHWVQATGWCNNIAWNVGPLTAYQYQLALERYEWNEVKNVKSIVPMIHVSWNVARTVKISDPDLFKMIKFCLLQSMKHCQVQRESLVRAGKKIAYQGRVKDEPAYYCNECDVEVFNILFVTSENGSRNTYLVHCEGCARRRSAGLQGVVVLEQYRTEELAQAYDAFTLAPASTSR

The values below come from BindingDB's records for doi:10.1038/nchembio.2087 (University of Oxford, 2016).

Broadly, the IC50 is the concentration that inhibits the measured activity by half. Read a low IC50 as greater potency in that assay.

T4 sequence (Q9BY66 1-775): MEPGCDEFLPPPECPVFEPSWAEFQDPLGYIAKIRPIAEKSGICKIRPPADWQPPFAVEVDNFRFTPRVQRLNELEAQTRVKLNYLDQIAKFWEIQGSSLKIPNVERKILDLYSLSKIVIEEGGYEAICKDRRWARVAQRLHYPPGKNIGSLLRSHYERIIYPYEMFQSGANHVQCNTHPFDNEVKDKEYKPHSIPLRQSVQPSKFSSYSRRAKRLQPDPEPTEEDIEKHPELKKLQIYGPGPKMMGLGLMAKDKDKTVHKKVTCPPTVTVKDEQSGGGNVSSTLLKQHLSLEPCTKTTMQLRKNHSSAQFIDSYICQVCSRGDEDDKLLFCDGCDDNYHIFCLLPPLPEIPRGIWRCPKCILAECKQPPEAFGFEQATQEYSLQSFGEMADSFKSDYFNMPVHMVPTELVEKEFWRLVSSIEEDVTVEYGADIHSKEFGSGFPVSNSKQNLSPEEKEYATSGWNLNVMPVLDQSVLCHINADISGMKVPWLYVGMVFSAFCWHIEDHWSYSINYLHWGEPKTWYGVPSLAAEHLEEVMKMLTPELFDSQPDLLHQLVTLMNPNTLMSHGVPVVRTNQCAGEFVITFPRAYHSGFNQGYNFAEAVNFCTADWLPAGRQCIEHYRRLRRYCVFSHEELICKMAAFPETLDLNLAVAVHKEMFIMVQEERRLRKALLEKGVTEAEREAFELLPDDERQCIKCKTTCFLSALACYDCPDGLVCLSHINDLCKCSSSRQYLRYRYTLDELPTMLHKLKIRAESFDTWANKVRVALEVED
Chain of Lysine-specific demethylase 5B (Q9UGL1 whole entry): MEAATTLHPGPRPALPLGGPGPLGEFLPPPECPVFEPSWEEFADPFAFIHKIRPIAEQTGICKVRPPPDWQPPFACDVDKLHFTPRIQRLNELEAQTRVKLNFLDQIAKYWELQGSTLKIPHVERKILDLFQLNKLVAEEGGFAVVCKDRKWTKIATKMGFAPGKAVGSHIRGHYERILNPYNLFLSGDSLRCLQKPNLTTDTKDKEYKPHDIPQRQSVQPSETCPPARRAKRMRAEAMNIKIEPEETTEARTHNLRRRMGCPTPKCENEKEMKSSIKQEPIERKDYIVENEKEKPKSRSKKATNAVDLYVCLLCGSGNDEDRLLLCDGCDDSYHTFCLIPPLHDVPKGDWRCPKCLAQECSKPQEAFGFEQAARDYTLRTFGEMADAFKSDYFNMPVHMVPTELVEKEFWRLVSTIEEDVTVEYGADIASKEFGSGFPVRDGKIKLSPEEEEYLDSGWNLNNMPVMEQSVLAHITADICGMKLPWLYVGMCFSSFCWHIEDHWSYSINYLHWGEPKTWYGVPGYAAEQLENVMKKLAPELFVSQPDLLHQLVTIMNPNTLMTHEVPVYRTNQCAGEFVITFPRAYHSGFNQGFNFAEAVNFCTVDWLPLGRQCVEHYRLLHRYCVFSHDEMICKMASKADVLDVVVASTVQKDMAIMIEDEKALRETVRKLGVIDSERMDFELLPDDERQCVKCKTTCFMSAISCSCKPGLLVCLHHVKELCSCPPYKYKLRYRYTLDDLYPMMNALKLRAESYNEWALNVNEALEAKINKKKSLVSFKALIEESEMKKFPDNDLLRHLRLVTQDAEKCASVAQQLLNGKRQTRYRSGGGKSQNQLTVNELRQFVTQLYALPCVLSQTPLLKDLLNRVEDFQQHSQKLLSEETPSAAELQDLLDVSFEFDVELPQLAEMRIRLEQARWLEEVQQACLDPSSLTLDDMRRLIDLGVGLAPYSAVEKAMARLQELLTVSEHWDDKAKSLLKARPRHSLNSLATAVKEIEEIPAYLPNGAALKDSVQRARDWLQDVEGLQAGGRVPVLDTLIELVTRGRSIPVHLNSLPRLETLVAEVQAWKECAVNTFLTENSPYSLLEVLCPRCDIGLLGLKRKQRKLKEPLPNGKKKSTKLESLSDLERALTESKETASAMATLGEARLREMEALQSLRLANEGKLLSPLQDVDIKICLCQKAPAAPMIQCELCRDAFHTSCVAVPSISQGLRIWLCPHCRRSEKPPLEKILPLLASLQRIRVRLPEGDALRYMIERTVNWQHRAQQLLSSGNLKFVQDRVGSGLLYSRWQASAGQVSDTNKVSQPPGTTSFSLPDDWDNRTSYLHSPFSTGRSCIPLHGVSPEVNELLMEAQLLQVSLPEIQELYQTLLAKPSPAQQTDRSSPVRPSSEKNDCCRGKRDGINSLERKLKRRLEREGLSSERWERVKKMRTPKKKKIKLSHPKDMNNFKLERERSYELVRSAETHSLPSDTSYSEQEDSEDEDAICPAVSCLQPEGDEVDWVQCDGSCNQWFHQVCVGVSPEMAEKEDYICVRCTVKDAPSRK

As to `O=C(O)CCNc1cc(N2CCc3ccccc3CC2)nc(-c2ccccn2)n1` [GSK-J1], the IC50 was 1500 nM in assay [1]; 550 nM in assay [2]; 64900 nM in assay [3]; 3900 nM in assay [4]; 1500 nM in assay [5].

Turning to `CCN(CCN(C)C)C(=O)CNCc1cc(C(=O)O)ccn1` [KDOAM-20], the IC50 in assay [1] was found to be 13 nM; in assay [2] it was 4 nM; in assay [3], 210 nM; in assay [6], 780 nM; in assay [4], 7 nM; in assay [5] it was 15 nM. Further, the IC50 in assay [7] was 2200 nM; in assay [8], 1400 nM.

On to `O=C(O)c1ccnc(C(=O)O)c1` [pyridine-2,4-dicarboxylic acid], for which the IC50 in assay [4] was determined as 1300 nM; in assay [5], 2500 nM.

`O=C(O)CNC(=O)C(=O)O`: the IC50 in assay [2] came out at 24500 nM; in assay [3], 41500 nM; in assay [4], 6900 nM; in assay [5], 5800 nM.

`O=c1[nH]c(Oc2cnn(Cc3ccccc3)c2)nc2cnccc12` [GSK467]: the half-inhibitory concentration (IC50) was determined as 65 nM in assay [1]; 26 nM in assay [2]; 5100 nM in assay [3]; 33900 nM in assay [6]; 24 nM in assay [4]; 77 nM in assay [5].
